Measured values reported in ChEMBL document CHEMBL4251634, “Synthesis and antimicrobial activity of pyrimidinyl 1,3,4-oxadiazoles, 1,3,4-thiadiazoles and 1,2,4-triazoles” (2018).
Activity calls are given as the source filed them. The rule behind the calls is not given here.

Key:
Format in all cases: functional
Staphylococcus aureus [1] = assay: Antibacterial activity against Staphylococcus aureus assessed as diameter of inhibition zone at 12.5 ug/well after 24 hrs by agar well diffusion method
Staphylococcus aureus [2] = assay: Antibacterial activity against Staphylococcus aureus assessed as diameter of inhibition zone at 25 ug/well after 24 hrs by agar well diffusion method
Staphylococcus aureus [3] = assay: Antibacterial activity against Staphylococcus aureus assessed as diameter of inhibition zone at 50 ug/well after 24 hrs by agar well diffusion method
Staphylococcus aureus [4] = assay: Antibacterial activity against Staphylococcus aureus assessed as diameter of inhibition zone at 100 ug/well after 24 hrs by agar well diffusion method; conditions: for zone of inhibition at 100 µg/disc: read-out: DIZ
Bacillus subtilis [5] = assay: Antibacterial activity against Bacillus subtilis assessed as diameter of inhibition zone at 12.5 ug/well after 24 hrs by agar well diffusion method; conditions: for zone of inhibition at 12.5 µg/disc: read-out: DIZ
Bacillus subtilis [6] = assay: Antibacterial activity against Bacillus subtilis assessed as diameter of inhibition zone at 25 ug/well after 24 hrs by agar well diffusion method; conditions: for zone of inhibition at 25 µg/disc: read-out: DIZ
Bacillus subtilis [7] = assay: Antibacterial activity against Bacillus subtilis assessed as diameter of inhibition zone at 50 ug/well after 24 hrs by agar well diffusion method; conditions: for zone of inhibition at 50 µg/disc: read-out: DIZ
Bacillus subtilis [8] = assay: Antibacterial activity against Bacillus subtilis assessed as diameter of inhibition zone at 100 ug/well after 24 hrs by agar well diffusion method; conditions: for zone of inhibition at 100 µg/disc: read-out: DIZ
Pseudomonas aeruginosa [9] = assay: Antibacterial activity against Pseudomonas aeruginosa assessed as diameter of inhibition zone at 12.5 ug/well after 24 hrs by agar well diffusion method; conditions: for zone of inhibition at 12.5 µg/disc: read-out: DIZ
Pseudomonas aeruginosa [10] = assay: Antibacterial activity against Pseudomonas aeruginosa assessed as diameter of inhibition zone at 25 ug/well after 24 hrs by agar well diffusion method; conditions: for zone of inhibition at 25 µg/disc: read-out: DIZ
Pseudomonas aeruginosa [11] = assay: Antibacterial activity against Pseudomonas aeruginosa assessed as diameter of inhibition zone at 50 ug/well after 24 hrs by agar well diffusion method; conditions: for zone of inhibition at 50 µg/disc: read-out: DIZ
Pseudomonas aeruginosa [12] = assay: Antibacterial activity against Pseudomonas aeruginosa assessed as diameter of inhibition zone at 100 ug/well after 24 hrs by agar well diffusion method; conditions: for zone of inhibition at 100 µg/disc: read-out: DIZ
Klebsiella pneumoniae [13] = assay: Antibacterial activity against Klebsiella pneumoniae assessed as diameter of inhibition zone at 12.5 ug/well after 24 hrs by agar well diffusion method; conditions: for zone of inhibition at 12.5 µg/disc: read-out: DIZ
Klebsiella pneumoniae [14] = assay: Antibacterial activity against Klebsiella pneumoniae assessed as diameter of inhibition zone at 25 ug/well after 24 hrs by agar well diffusion method; conditions: for zone of inhibition at 25 µg/disc: read-out: DIZ
Klebsiella pneumoniae [15] = assay: Antibacterial activity against Klebsiella pneumoniae assessed as diameter of inhibition zone at 50 ug/well after 24 hrs by agar well diffusion method; conditions: for zone of inhibition at 50 µg/disc: read-out: DIZ
Klebsiella pneumoniae [16] = assay: Antibacterial activity against Klebsiella pneumoniae assessed as diameter of inhibition zone at 100 ug/well after 24 hrs by agar well diffusion method; conditions: for zone of inhibition at 100 µg/disc: read-out: DIZ
Aspergillus niger [17] = assay: Antifungal activity against Aspergillus niger assessed as diameter of inhibition zone at 12.5 ug/well after 48 hrs by agar well diffusion method; conditions: for zone of inhibition at 12.5 µg/disc: read-out: DIZ
Aspergillus niger [18] = assay: Antifungal activity against Aspergillus niger assessed as diameter of inhibition zone at 25 ug/well after 48 hrs by agar well diffusion method; conditions: for zone of inhibition at 25 µg/disc: read-out: DIZ
Aspergillus niger [19] = assay: Antifungal activity against Aspergillus niger assessed as diameter of inhibition zone at 50 ug/well after 48 hrs by agar well diffusion method; conditions: for zone of inhibition at 50 µg/disc: read-out: DIZ
Aspergillus niger [20] = assay: Antifungal activity against Aspergillus niger assessed as diameter of inhibition zone at 100 ug/well after 48 hrs by agar well diffusion method; conditions: for zone of inhibition at 100 µg/disc: read-out: DIZ
Penicillium chrysogenum [21] = assay: Antifungal activity against Penicillium chrysogenum assessed as diameter of inhibition zone at 12.5 ug/well after 48 hrs by agar well diffusion method
Penicillium chrysogenum [22] = assay: Antifungal activity against Penicillium chrysogenum assessed as diameter of inhibition zone at 25 ug/well after 48 hrs by agar well diffusion method
Penicillium chrysogenum [23] = assay: Antifungal activity against Penicillium chrysogenum assessed as diameter of inhibition zone at 50 ug/well after 48 hrs by agar well diffusion method
Penicillium chrysogenum [24] = assay: Antifungal activity against Penicillium chrysogenum assessed as diameter of inhibition zone at 100 ug/well after 48 hrs by agar well diffusion method

SMILES | zone of inhibition at 50 µg/disc (Pseudomonas aeruginosa [11]) | zone of inhibition at 100 µg/disc (Pseudomonas aeruginosa [12]) | zone of inhibition at 100 µg/disc (Klebsiella pneumoniae [16]) | zone of inhibition at 50 µg/disc (Aspergillus niger [19]) | zone of inhibition at 100 µg/disc (Aspergillus niger [20]) | diameter of the inhibition zone (DIZ) (Staphylococcus aureus [1]) | diameter of the inhibition zone (DIZ) (Staphylococcus aureus [2]) | diameter of the inhibition zone (DIZ) (Staphylococcus aureus [3]) | diameter of the inhibition zone (DIZ) (Staphylococcus aureus [4]) | diameter of the inhibition zone (DIZ) (Bacillus subtilis [5]) | diameter of the inhibition zone (DIZ) (Bacillus subtilis [6]) | diameter of the inhibition zone (DIZ) (Bacillus subtilis [7]) | diameter of the inhibition zone (DIZ) (Bacillus subtilis [8]) | diameter of the inhibition zone (DIZ) (Pseudomonas aeruginosa [9]) | diameter of the inhibition zone (DIZ) (Klebsiella pneumoniae [13]) | diameter of the inhibition zone (DIZ) (Klebsiella pneumoniae [14]) | diameter of the inhibition zone (DIZ) (Penicillium chrysogenum [21]) | diameter of the inhibition zone (DIZ) (Penicillium chrysogenum [22]) | diameter of the inhibition zone (DIZ) (Penicillium chrysogenum [23]) | diameter of the inhibition zone (DIZ) (Penicillium chrysogenum [24]) | also measured
Cc1cc(SCc2nnc(-c3ccc(Br)cc3)s2)nc(SCc2nnc(-c3ccc(Br)cc3)s2)n1 | 25 mm | 29 mm | 31 mm | 26 mm | 30 mm |  |  |  |  |  |  |  |  |  |  |  |  |  |  |  | zone of inhibition at 12.5 µg/disc (Staphylococcus aureus [1]; read-out: DIZ): 11 mm; zone of inhibition at 25 µg/disc (Staphylococcus aureus [2]; read-out: DIZ): 13 mm; zone of inhibition at 50 µg/disc (Staphylococcus aureus [3]; read-out: DIZ): 15 mm; zone of inhibition at 100 µg/disc (Staphylococcus aureus [4]): 17 mm; zone of inhibition at 12.5 µg/disc (Bacillus subtilis [5]): 17 mm; zone of inhibition at 25 µg/disc (Bacillus subtilis [6]): 19 mm; zone of inhibition at 50 µg/disc (Bacillus subtilis [7]): 21 mm; zone of inhibition at 100 µg/disc (Bacillus subtilis [8]): 24 mm; zone of inhibition at 12.5 µg/disc (Pseudomonas aeruginosa [9]): 19 mm; zone of inhibition at 25 µg/disc (Pseudomonas aeruginosa [10]): 23 mm; zone of inhibition at 12.5 µg/disc (Klebsiella pneumoniae [13]): 24 mm; zone of inhibition at 25 µg/disc (Klebsiella pneumoniae [14]): 26 mm; zone of inhibition at 50 µg/disc (Klebsiella pneumoniae [15]): 28 mm; zone of inhibition at 12.5 µg/disc (Aspergillus niger [17]): 22 mm; zone of inhibition at 25 µg/disc (Aspergillus niger [18]): 24 mm; zone of inhibition at 12.5 µg/disc (Penicillium chrysogenum [21]; read-out: DIZ): 13 mm; zone of inhibition at 25 µg/disc (Penicillium chrysogenum [22]; read-out: DIZ): 15 mm; zone of inhibition at 50 µg/disc (Penicillium chrysogenum [23]; read-out: DIZ): 17 mm; zone of inhibition at 100 µg/disc (Penicillium chrysogenum [24]; read-out: DIZ): 20 mm
COc1ccc(-c2nnc(CSc3cc(C)nc(SCc4nnc(-c5ccc(OC)cc5)o4)n3)o2)cc1 |  |  |  |  |  | inactive | inactive | inactive | inactive | inactive | inactive | inactive | inactive | inactive | inactive | inactive | inactive | inactive | inactive | inactive | diameter of the inhibition zone (DIZ) (Pseudomonas aeruginosa [10]): inactive; diameter of the inhibition zone (DIZ) (Pseudomonas aeruginosa [11]): inactive; diameter of the inhibition zone (DIZ) (Pseudomonas aeruginosa [12]): inactive; diameter of the inhibition zone (DIZ) (Klebsiella pneumoniae [15]): inactive; diameter of the inhibition zone (DIZ) (Klebsiella pneumoniae [16]): inactive; diameter of the inhibition zone (DIZ) (Aspergillus niger [17]): inactive; diameter of the inhibition zone (DIZ) (Aspergillus niger [18]): inactive; diameter of the inhibition zone (DIZ) (Aspergillus niger [19]): inactive; diameter of the inhibition zone (DIZ) (Aspergillus niger [20]): inactive
COc1ccc(-c2nnc(CSc3cc(C)nc(SCc4nnc(-c5ccc(OC)cc5)n4N)n3)n2N)cc1 |  |  |  | 8 mm | 10 mm | inactive | inactive | inactive | inactive | inactive | inactive | inactive | inactive | inactive | inactive | inactive | inactive | inactive | inactive | inactive | diameter of the inhibition zone (DIZ) (Pseudomonas aeruginosa [10]): inactive; diameter of the inhibition zone (DIZ) (Pseudomonas aeruginosa [11]): inactive; diameter of the inhibition zone (DIZ) (Pseudomonas aeruginosa [12]): inactive; diameter of the inhibition zone (DIZ) (Klebsiella pneumoniae [15]): inactive; diameter of the inhibition zone (DIZ) (Klebsiella pneumoniae [16]): inactive; diameter of the inhibition zone (DIZ) (Aspergillus niger [17]): inactive; diameter of the inhibition zone (DIZ) (Aspergillus niger [18]): inactive
Cc1ccc(-c2nnc(CSc3cc(C)nc(SCc4nnc(-c5ccc(C)cc5)s4)n3)s2)cc1 | 15 mm | 19 mm | 20 mm | 13 mm | 15 mm | inactive | inactive | inactive |  |  |  |  |  |  |  |  | inactive | inactive | inactive | inactive | zone of inhibition at 100 µg/disc (Staphylococcus aureus [4]): 8 mm; zone of inhibition at 12.5 µg/disc (Bacillus subtilis [5]): 8 mm; zone of inhibition at 25 µg/disc (Bacillus subtilis [6]): 10 mm; zone of inhibition at 50 µg/disc (Bacillus subtilis [7]): 11 mm; zone of inhibition at 100 µg/disc (Bacillus subtilis [8]): 13 mm; zone of inhibition at 12.5 µg/disc (Pseudomonas aeruginosa [9]): 10 mm; zone of inhibition at 25 µg/disc (Pseudomonas aeruginosa [10]): 12 mm; zone of inhibition at 12.5 µg/disc (Klebsiella pneumoniae [13]): 14 mm; zone of inhibition at 25 µg/disc (Klebsiella pneumoniae [14]): 16 mm; zone of inhibition at 50 µg/disc (Klebsiella pneumoniae [15]): 18 mm; zone of inhibition at 12.5 µg/disc (Aspergillus niger [17]): 9 mm; zone of inhibition at 25 µg/disc (Aspergillus niger [18]): 11 mm
COc1ccc(-c2nnc(CSc3cc(C)nc(SCc4nnc(-c5ccc(OC)cc5)s4)n3)s2)cc1 | 8 mm | 10 mm | 13 mm |  |  | inactive | inactive | inactive | inactive | inactive | inactive | inactive | inactive | inactive | inactive | inactive | inactive | inactive | inactive | inactive | diameter of the inhibition zone (DIZ) (Pseudomonas aeruginosa [10]): inactive; diameter of the inhibition zone (DIZ) (Klebsiella pneumoniae [15]): inactive; diameter of the inhibition zone (DIZ) (Aspergillus niger [17]): inactive; diameter of the inhibition zone (DIZ) (Aspergillus niger [18]): inactive; diameter of the inhibition zone (DIZ) (Aspergillus niger [19]): inactive; diameter of the inhibition zone (DIZ) (Aspergillus niger [20]): inactive
Cc1ccc(-c2nnc(CSc3cc(C)nc(SCc4nnc(-c5ccc(C)cc5)o4)n3)o2)cc1 | 10 mm | 12 mm | 10 mm | 7 mm | 9 mm | inactive | inactive | inactive | inactive | inactive | inactive | inactive | inactive | inactive | inactive | inactive | inactive | inactive | inactive | inactive | zone of inhibition at 25 µg/disc (Pseudomonas aeruginosa [10]): 8 mm; zone of inhibition at 50 µg/disc (Klebsiella pneumoniae [15]): 8 mm; diameter of the inhibition zone (DIZ) (Aspergillus niger [17]): inactive; diameter of the inhibition zone (DIZ) (Aspergillus niger [18]): inactive
